Assay results: PubChem BioAssay (NCI)
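Values below derive from 48-hour exposures of cells grown in 96-well plates, with endpoints linearly interpolated between the two concentrations bracketing the appropriate inhibition level. GI50 = concentration required for 50% inhibition of growth. TGI: total growth inhibition.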

Columns and labels:
Test in all cases: inhibition of tumour cell growth, NCI panel, 48 h
SNB-75 CNS = test system: SNB-75 CNS
RPMI-8226 leukemia = test system: RPMI-8226 leukemia
OVCAR-5 ovarian = test system: OVCAR-5 ovarian
U251 CNS = test system: U251 CNS
PC-3 prostate = test system: PC-3 prostate
UACC-62 melanoma = test system: UACC-62 melanoma
HS 578T breast = test system: HS 578T breast
SK-MEL-28 melanoma = test system: SK-MEL-28 melanoma
RXF 393 renal = test system: RXF 393 renal
MOLT-4 leukemia = test system: MOLT-4 leukemia

| Structure (SMILES) | GI50 (SNB-75 CNS) | TGI (SNB-75 CNS) | GI50 (RPMI-8226 leukemia) | TGI (RPMI-8226 leukemia) | GI50 (OVCAR-5 ovarian) | TGI (OVCAR-5 ovarian) | GI50 (U251 CNS) | TGI (U251 CNS) | GI50 (PC-3 prostate) | TGI (PC-3 prostate) | GI50 (UACC-62 melanoma) | TGI (UACC-62 melanoma) | GI50 (HS 578T breast) | TGI (HS 578T breast) | GI50 (SK-MEL-28 melanoma) | TGI (SK-MEL-28 melanoma) | GI50 (RXF 393 renal) | TGI (RXF 393 renal) | GI50 (MOLT-4 leukemia) | TGI (MOLT-4 leukemia) |
| --- | --- | --- | --- | --- | --- | --- | --- | --- | --- | --- | --- | --- | --- | --- | --- | --- | --- | --- | --- | --- |
| CCCCCC[C@@H](C)NC(=O)c1ccc(Nc2nc3ccccc3c3occc23)cc1 | 2.25 µM | 6.38 µM | 3.75 µM | > 100 µM | 5.72 µM | > 100 µM | 38.8 µM | > 100 µM | 3.45 µM | > 100 µM | 32.8 µM | > 100 µM | 3.79 µM | > 100 µM | 5.5 µM | > 100 µM | 3.41 µM | 9.84 µM | 3.71 µM | > 100 µM |
| CC(=O)/C=C/C1=C(c2csc3ccccc23)c2ccccc2CC1 | 22.4 µM | > 100 µM | 8.69 µM | 47.3 µM | 33.8 µM | > 100 µM | 31.1 µM | > 100 µM | 29.9 µM | > 100 µM | 12.8 µM | 30.5 µM | 35 µM | > 100 µM | 16.9 µM | 37.1 µM | 20.2 µM | 46.5 µM | 15.6 µM | > 100 µM |
| Cc1[nH]c(N)nc(=S)c1CCC(=O)O |  |  |  | > 100 µM |  | > 100 µM |  | > 100 µM |  | > 100 µM |  | > 100 µM |  | > 100 µM |  | > 100 µM |  | > 100 µM |  | > 100 µM |
| Cc1ccc2c(c1)C(=O)c1c-2c(OCCCN(C)C)nc2ccccc12 | 2.22 µM | 15.5 µM | 2.71 µM | 7.93 µM | 1.47 µM | 3.65 µM | 4.13 µM | 14.8 µM | 2.26 µM | 7.65 µM | 2.08 µM | 4.34 µM | 4.24 µM | 19.8 µM | 1.76 µM | 3.41 µM | 2.26 µM | 12.7 µM | 0.427 µM | 4.57 µM |
| O=C(CI)Nc1ccc(O)c2ccccc12 | 1.61 µM | 4.98 µM | 1.65 µM | 4.61 µM | 1.85 µM | 3.55 µM | 1.57 µM | 3.11 µM | 2.38 µM | 9.69 µM | 1.67 µM | 3.44 µM | 2.45 µM | 8.49 µM | 1.78 µM | 3.74 µM | 0.742 µM | 1.97 µM | 0.846 µM | 8.18 µM |
| Nc1nc2cc(CC[C@H]3C[C@@H](n4ccc5c(N)ncnc54)[C@H](O)[C@@H]3O)ccc2cc1Br | 4 µM | 19.1 µM | 4.92 µM | 57.2 µM | 14.2 µM | 30.1 µM | 13 µM | 29.8 µM | 11 µM | 25.9 µM | 8.95 µM | 21.7 µM | 14.1 µM | 36.8 µM | 12.2 µM | 25.4 µM | 6.95 µM | 22.9 µM | 2.43 µM | 64.3 µM |
| COC1=CC(c2ccc[nH]2)=N/C1=C\c1[nH]c(C)c(CC(=O)OCc2ccccc2)c1C | 0.217 µM | 0.777 µM |  |  | 1.11 µM | 5.38 µM | 0.319 µM | 1.73 µM | 0.299 µM | 10.3 µM |  |  | 0.362 µM | 2.26 µM |  |  | 0.43 µM | 2.07 µM | 0.23 µM | 1.27 µM |
| CC([C@H]1CC=C2C3CCC4=C[C@@H](N(C)C)CC[C@]4(C)C3CC[C@@]21C)N(C)C (stereo partly specified) | 3.3 µM | 10.6 µM | 1.91 µM | 13 µM | 6.23 µM | 19.5 µM | 3.21 µM | 15.4 µM | 2.15 µM | 7.72 µM | 1.75 µM | 3.59 µM | 3.24 µM | 13.6 µM | 1.74 µM | 3.38 µM | 4.28 µM | 17.3 µM | 1.97 µM | 5.31 µM |
| CC(=O)O[C@H]1C(=O)[C@@]2(C)[C@H]([C@H](OC(=O)c3ccccc3)[C@]3(O)C[C@H](OC(=O)[C@H](OC(=O)OC[C@H]4COC(C)(C)O4)[C@@H](NC(=O)c4ccccc4)c4ccccc4)C(C)=C1C3(C)C)[C@]1(OC(C)=O)CO[C@@H]1C[C@@H]2O | 0.00333 µM | 0.0697 µM | 0.00754 µM | > 33.3 µM | 0.0433 µM | > 33.3 µM | 0.0288 µM | > 33.3 µM | 0.0305 µM | > 33.3 µM | 0.046 µM | > 33.3 µM | 0.0166 µM | 0.39 µM | > 33.3 µM | > 33.3 µM | 0.0307 µM | 0.201 µM | 0.0408 µM | > 33.3 µM |
| ClCc1ccccc1Cn1cnc2c(Cl)ncnc21 | 2.86 µM | 11.1 µM | 14.1 µM | 40.6 µM | 2.46 µM | 6.53 µM | 2.65 µM | 6.11 µM | 3.03 µM | 10.5 µM | 3.28 µM | 6.66 µM | 2.28 µM | 6.67 µM | 2.31 µM | 5.48 µM | 0.442 µM | 2.32 µM | 1.6 µM | 5.28 µM |
| O=C(C#Cc1ccccc1)C1=Cc2ccccc2OC1 |  | 13.3 µM |  | 58.7 µM |  | 15 µM |  | > 100 µM |  | 22.2 µM |  | 4.26 µM |  | 23.8 µM |  | > 65.7 µM |  | 9.78 µM |  | > 100 µM |
| COc1ccc(NC(=O)c2sc3nc(C)c(C(=O)/C=C/c4cccc(OC)c4)cc3c2N)cc1 | 1.45 µM | 4.87 µM | 0.989 µM | 3.08 µM | 1.62 µM | 9 µM | 1.01 µM | 2.14 µM | 1.56 µM | 6.55 µM | 1.39 µM | 4.11 µM | 4.5 µM | > 50 µM |  |  | 0.916 µM | 1.84 µM | 1.5 µM | > 50 µM |
| C[C@H]1COCCN1c1cc(C2(S(=O)(=O)C3CC3)CC2)nc(-c2ccc(NC(=S)NCCO)cc2)n1 | < 0.01 µM | 0.0865 µM | < 0.0125 µM | 1.86 µM | 0.0405 µM | > 100 µM | 0.0524 µM | 32.2 µM | < 0.013 µM | 38.7 µM | < 0.01 µM | 0.0883 µM | 0.0109 µM | 0.0643 µM | < 0.01 µM | 1.1 µM | < 0.0112 µM | 0.0689 µM | 0.0467 µM | > 37.8 µM |
